Measured values as given in article PMC5674032, “New Insights into PI3K Inhibitor Design using X-ray Structures of PI3Kα Complexed with a Potent Lead Compound” (Scientific Reports, 2017).

Biological target: T1, PI3Kα (p110α) (Homo sapiens, UniProt P42336)
T1 construct: gene PIK3CA; N-6*His tag-TEV site-p85α (318–615) - GSPGISGGGGG-full length p110α fusion protein; with p85α (318–615), PIK3R1
Assay: X-ray co-crystal structure (apo crystals soaked); IC50 from PI3K HTRF assay on purified enzyme
Type: biochemical
Source text: X-ray co-crystal structure (apo crystals soaked); IC50 from PI3K HTRF assay on purified enzyme on PI3Kα (p110α) | The crystal structure of PI3Kα–YXY-4F verified that the compound YXY-4F bound to the ATP-binding pocket

T1 sequence (P42336 whole entry, the tested form may be a part): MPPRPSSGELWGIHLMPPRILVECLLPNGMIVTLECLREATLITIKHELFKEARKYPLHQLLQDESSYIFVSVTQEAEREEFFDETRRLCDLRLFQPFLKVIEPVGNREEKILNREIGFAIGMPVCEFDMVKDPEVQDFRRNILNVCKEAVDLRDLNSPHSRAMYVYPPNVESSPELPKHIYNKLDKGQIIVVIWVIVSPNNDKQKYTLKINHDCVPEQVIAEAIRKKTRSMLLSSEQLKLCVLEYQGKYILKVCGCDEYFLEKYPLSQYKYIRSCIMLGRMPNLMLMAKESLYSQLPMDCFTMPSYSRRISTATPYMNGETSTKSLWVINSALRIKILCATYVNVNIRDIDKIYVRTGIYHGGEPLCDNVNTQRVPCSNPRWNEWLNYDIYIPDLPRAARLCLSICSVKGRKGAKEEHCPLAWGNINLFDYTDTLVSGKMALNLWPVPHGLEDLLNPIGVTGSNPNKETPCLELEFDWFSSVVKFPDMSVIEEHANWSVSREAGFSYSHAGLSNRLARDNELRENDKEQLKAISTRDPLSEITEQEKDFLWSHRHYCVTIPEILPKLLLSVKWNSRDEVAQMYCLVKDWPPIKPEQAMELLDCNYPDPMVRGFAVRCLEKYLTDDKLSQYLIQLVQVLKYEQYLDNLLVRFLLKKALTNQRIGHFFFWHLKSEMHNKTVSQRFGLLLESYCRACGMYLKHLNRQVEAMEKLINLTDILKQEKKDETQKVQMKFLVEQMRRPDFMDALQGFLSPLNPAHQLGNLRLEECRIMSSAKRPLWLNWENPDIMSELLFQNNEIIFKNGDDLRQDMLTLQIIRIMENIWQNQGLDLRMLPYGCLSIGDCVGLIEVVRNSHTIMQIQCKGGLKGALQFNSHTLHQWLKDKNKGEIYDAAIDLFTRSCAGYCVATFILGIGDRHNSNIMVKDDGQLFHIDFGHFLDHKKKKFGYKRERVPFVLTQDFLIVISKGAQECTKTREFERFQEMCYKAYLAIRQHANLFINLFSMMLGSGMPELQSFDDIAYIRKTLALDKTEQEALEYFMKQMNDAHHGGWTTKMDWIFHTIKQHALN
T1 sequence (P27986 318-615 partner): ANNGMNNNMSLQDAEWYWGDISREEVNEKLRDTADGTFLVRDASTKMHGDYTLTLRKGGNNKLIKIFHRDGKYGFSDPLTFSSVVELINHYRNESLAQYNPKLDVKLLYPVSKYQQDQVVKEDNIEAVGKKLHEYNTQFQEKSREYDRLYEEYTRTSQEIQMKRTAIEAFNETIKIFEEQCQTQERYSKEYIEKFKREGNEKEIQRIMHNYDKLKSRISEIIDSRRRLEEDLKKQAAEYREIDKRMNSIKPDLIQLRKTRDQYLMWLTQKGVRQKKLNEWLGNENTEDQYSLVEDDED

For `Oc1cc(NCc2ccc(F)cc2)cc(-c2nc(N3CCOCC3)c3sccc3n2)c1` [YXY-4F], the IC50 was 1020 ± 5 nM.
